In brackets after ≈: the same amount, converted by molar mass.

Broadly, the MIC is the lowest concentration that inhibits growth of the organism.

The assay has as its system Escherichia coli ATCC 25922. The assay is described as follows: Minimal Inhibitory Concentration (MIC) determination, broth microdilution (CLSI M07-A10). The format is cell-based. The note with it: Escherichia coli, ATCC25922, strain Escherichia coli ATCC 25922, 18-24 hours at 35±2° C., lowest concentration for complete growth inhibition (no visible growth), read-out: Escherichia coli growth inhibition MIC. In outline: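 MIC read visually as the lowest concentration with complete growth inhibition after 18-24 h at 35±2° C, ambient air. Method follows CLSI M07-A10 broth microdilution, two-fold compound series, inoculum standardized to 0.5 McFarland then diluted 1:200.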
(In general: In broth dilution the organism is exposed to a series of concentrations in liquid medium.)
For the compound `CNCC(=O)NCCn1nnc2c(F)c3c(c(F)c21)CC(CN1CCC2(CC1)CN(c1cnc4c(n1)NC(=O)CO4)C(=O)O2)C3` (stereo not shown) [Example 61, N-[2-[4,8-Difluoro-6-[[2-oxo-3-(3-oxo-4H-pyrazino[2,3-b][1,4]oxazin-6-yl)-1-oxa-3,8-diazaspiro[4.5]decan-8-yl]methyl]-6,7-dihydro-5H-cyclopenta[f]benzotriazol-1-yl]ethyl]-2-(methylamino)acetamide], the MIC is 0.5 µg/mL (≈ 0.798 µM).

With `CN(C)CCc1nc2cc3c(c(F)c2o1)CC(CN1CCC2(CC1)CN(c1cnc4c(n1)NC(=O)CO4)C(=O)O2)C3` (stereo not shown) [Example 62, 6-[8-[[2-[2-(Dimethylamino)ethyl]-8-fluoro-6,7-dihydro-5H-cyclopenta[f][1,3]benzoxazol-6-yl]methyl]-2-oxo-1-oxa-3,8-diazaspiro[4.5]decan-3-yl]-4H-pyrazino[2,3-b][1,4]oxazin-3-one], the MIC stood at 0.25 µg/mL (≈ 0.442 µM).

`CN(C)[C@H](CO)Cc1nc2c(F)c3c(c(F)c2[nH]1)CC(CN1CCC2(CC1)CN(c1cnc4c(n1)NC(=O)CO4)C(=O)O2)C3` [Example 63, 6-[8-[[2-[(2S)-2-(Dimethylamino)-3-hydroxy-propyl]-4,8-difluoro-3,5,6,7-tetrahydrocyclopenta[f]benzimidazol-6-yl]methyl]-2-oxo-1-oxa-3,8-diazaspiro[4.5]decan-3-yl]-4H-pyrazino[2,3-b][1,4]oxazin-3-one]: the MIC stood at 0.25 µg/mL (≈ 0.408 µM).

Regarding `CN(C)CCn1nnc2c(F)c3c(c(F)c21)CC(CN1CCC2(CC1)CN(c1cnc4c(n1)NC(=O)CO4)C(=O)O2)C3` (stereo not shown) [Example 64, 6-[8-[[1-[2-(Dimethylamino)ethyl]-4,8-difluoro-6,7-dihydro-5H-cyclopenta[f]benzotriazol-6-yl]methyl]-2-oxo-1-oxa-3,8-diazaspiro[4.5]decan-3-yl]-4H-pyrazino[2,3-b][1,4]oxazin-3-one], the MIC turned out to be 0.25 µg/mL (≈ 0.428 µM).

In the case of `CN(C)CCn1nnc2c(F)c3c(cc21)CC(CN1CCC2(CC1)CN(c1cnc4c(n1)NC(=O)CO4)C(=O)O2)C3` (stereo not shown) [Example 65, 6-[8-[[3-[2-(Dimethylamino)ethyl]-8-fluoro-6,7-dihydro-5H-cyclopenta[f]benzotriazol-6-yl]methyl]-2-oxo-1-oxa-3,8-diazaspiro[4.5]decan-3-yl]-4H-pyrazino[2,3-b][1,4]oxazin-3-one], the MIC is 0.125 µg/mL (≈ 0.221 µM).

Regarding `C[C@@H](N)c1nc2c(F)c3c(c(F)c2n1C)CC(CN1CCC2(CC1)CN(c1cnc4c(n1)NC(=O)CO4)C(=O)O2)C3` (stereo partly drawn) [Example 68, 6-[8-[[2-[(1R)-1-aminoethyl]-4,8-difluoro-1-methyl-6,7-dihydro-5H-cyclopenta[f]benzimidazol-6-yl]methyl]-2-oxo-1-oxa-3,8-diazaspiro[4.5]decan-3-yl]-4H-pyrazino[2,3-b][1,4]oxazin-3-one], the minimal inhibitory concentration (MIC) is 0.125 µg/mL (≈ 0.22 µM).

Take `CNCCc1nc2cc3c(c(F)c2[nH]1)CC(CN1CCC2(CC1)CN(c1cnc4c(n1)NC(=O)CO4)C(=O)O2)C3` (stereo not shown) [Example 69, 6-[8-[[8-fluoro-2-[2-(methylamino)ethyl]-1,5,6,7-tetrahydrocyclopenta[f]benzimidazol-6-yl]methyl]-2-oxo-1-oxa-3,8-diazaspiro[4.5]decan-3-yl]-4H-pyrazinio[2,3-b][1,4]oxazin-3-one]: the MIC was 0.25 µg/mL (≈ 0.454 µM).

Regarding `COCCNCc1nc2c(F)c3c(cc2[nH]1)CC(CN1CCC2(CC1)CN(c1cnc4c(n1)NC(=O)CO4)C(=O)O2)C3` (stereo not shown) [Example 70, 6-[8-[[8-fluoro-2-[(2-methoxyethylamino)methyl]-3,5,6,7-tetrahydrocyclopenta[f]benzimidazol-6-yl]methyl]-2-oxo-1-oxa-3,8-diazaspiro[4.5]decan-3-yl]-4H-pyrazino[2,3-b][1,4]oxazin-3-one], the MIC was found to be 0.25 µg/mL (≈ 0.431 µM).

Regarding `CNC(=O)CNCc1nc2c(F)c3c(cc2[nH]1)CC(CN1CCC2(CC1)CN(c1cnc4c(n1)NC(=O)CO4)C(=O)O2)C3` (stereo not shown) [Example 71, 2-[[8-fluoro-6-[[2-oxo-3-(3-oxo-4H-pyrazino[2,3-b][1,4]oxazin-6-yl)-1-oxa-3,8-diazaspiro[4.5]decan-8-yl]methyl]-3,5,6,7-tetrahydrocyclopenta[f]benzimidazol-2-yl]methylamino]-N-methyl-acetamide], the MIC stood at 1 µg/mL (≈ 1.68 µM).

In the case of `Cc1nc2c(F)c3c(cc2n1CCN)CC(CN1CCC2(CC1)CN(c1cnc4c(n1)NC(=O)CO4)C(=O)O2)C3` (stereo not shown) [Example 73, 6-[8-[[3-(2-Aminoethyl)-8-fluoro-2-methyl-6,7-dihydro-5H-cyclopenta[f]benzimidazol-6-yl]methyl]-2-oxo-1-oxa-3,8-diazaspiro[4.5]decan-3-yl]-4H-pyrazino[2,3-b][1,4]oxain-3-one], the MIC amounted to 2 µg/mL (≈ 3.63 µM).

In the case of `NCCn1nc2cc3c(c(F)c2n1)CC(CN1CCC2(CC1)CN(c1cnc4c(n1)NC(=O)CO4)C(=O)O2)C3` (stereo not shown) [Example 74, 6-[8-[[2-(2-aminoethyl)-8-fluoro-6,7-dihydro-5H-cyclopenta[f]benzotriazol-6-yl]methyl]-2-oxo-1-oxa-3,8-diazaspiro[4.5]decan-3-yl]-4H-pyrazino[2,3-b][1,4]oxazin-3-one], the MIC came out at 0.06 µg/mL (≈ 0.112 µM).

For the compound `NCCn1nnc2c(F)c3c(cc21)CC(CN1CCC2(CC1)CN(c1cnc4c(n1)NC(=O)CO4)C(=O)O2)C3` (stereo not shown) [Example 75, 6-[8-[[3-(2-aminoethyl)-8-fluoro-6,7-dihydro-5H-cyclopenta[f]benzotriazol-6-yl]methyl]-2-oxo-1-oxa-3,8-diazaspiro[4.5]decan-3-yl]-4H-pyrazino[2,3-b][1,4]oxazin-3-one], the MIC is at most 0.06 µg/mL.

For the compound `NCCn1nnc2cc3c(c(F)c21)CC(CN1CCC2(CC1)CN(c1cnc4c(n1)NC(=O)CO4)C(=O)O2)C3` (stereo not shown) [Example 76, 6-[8-[[1-(2-aminoethyl)-8-fluoro-6,7-dihydro-5H-cyclopenta[f]benzotriazol-6-yl]methyl]-2-oxo-1-oxa-3,8-diazaspiro[4.5]decan-3-yl]-4H-pyrazino[2,3-b][1,4]oxazin-3-one], the MIC was 0.125 µg/mL (≈ 0.233 µM).

Consider `NC1(Cn2nc3c(F)c4c(c(F)c3n2)CC(CN2CCC3(CC2)CN(c2cnc5c(n2)NC(=O)CO5)C(=O)O3)C4)CC1.O=C(O)C(F)(F)F` [Example 77, 6-[8-[[2-[(1-aminocyclopropyl)methyl]-4,8-difluoro-6,7-dihydro-5H-cyclopenta[f]benzotriazol-6-yl]methyl]-2-oxo-1-oxa-3,8-diazaspiro[4.5]decan-3-yl]-4H-pyrazino[2,3-b][1,4]oxazin-3-one; 2,2,2-trifluoroacetic acid], for which the MIC is 0.25 µg/mL.

With `NC1(Cn2nnc3c(F)c4c(c(F)c32)CC(CN2CCC3(CC2)CN(c2cnc5c(n2)NC(=O)CO5)C(=O)O3)C4)CC1` (stereo not shown) [Example 78, 6-[8-[[1-[(1-aminocyclopropyl)methyl]-4,8-difluoro-6,7-dihydro-5H-cyclopenta[f]benzotriazol-6-yl]methyl]-2-oxo-1-oxa-3,8-diazaspiro[4.5]decan-3-yl]-4H-pyrazino[2,3-b][1,4]oxazin-3-one], the MIC was 0.25 µg/mL (≈ 0.43 µM).

Turning to `O=C1COc2ncc(N3CC4(CCN(CC5Cc6c(c(F)c7nn(C8CNC8)nc7c6F)C5)CC4)OC3=O)nc2N1.O=CO` [Example 79, 6-[8-[[2-(azetidin-3-yl)-4,8-difluoro-6,7-dihydro-5H-cyclopenta[f]benzotriazol-6-yl]methyl]-2-oxo-1-oxa-3,8-diazaspiro[4.5]decan-3-yl]-4H-pyrazino[2,3-b][1,4]oxazin-3-one; formic acid], the MIC is 0.125 µg/mL.

In the case of `O=C1COc2ncc(N3CC4(CCN(CC5Cc6c(c(F)c7c(nnn7C7CNC7)c6F)C5)CC4)OC3=O)nc2N1` (stereo not shown) [Example 80, 6-[8-[[1-(azetidin-3-yl)-4,8-difluoro-6,7-dihydro-5H-cyclopenta[f]benzotriazol-6-yl]methyl]-2-oxo-1-oxa-3,8-diazaspiro[4.5]decan-3-yl]-4H-pyrazino[2,3-b][1,4]oxazin-3-one], the MIC is 0.125 µg/mL (≈ 0.22 µM).

Consider `NCCn1nc2cc(F)c3c(c2n1)CC(CN1CCC2(CC1)CN(c1cnc4c(n1)NC(=O)CO4)C(=O)O2)C3.O=C(O)C(F)(F)F` (stereo not shown) [Example 83, 6-[8-[[2-(2-aminoethyl)-5-fluoro-7,8-dihydro-6H-cyclopenta[e]benzotriazol-7-yl]methyl]-2-oxo-1-oxa-3,8-diazaspiro[4.5]decan-3-yl]-4H-pyrazino[2,3-b][1,4]oxazin-3-one; 2,2,2-trifluoroacetic acid], for which the MIC was at most 0.06 µg/mL.

Take `NCCn1nnc2cc(F)c3c(c21)CC(CN1CCC2(CC1)CN(c1cnc4c(n1)NC(=O)CO4)C(=O)O2)C3` (stereo not shown) [Example 84, 6-[8-[[1-(2-aminoethyl)-5-fluoro-7,8-dihydro-6H-cyclopenta[e]benzotriazol-7-yl]methyl]-2-keto-1-oxa-3,8-diazaspiro[4.5]decan-3-yl]-4H-pyrazino[2,3-b][1,4]oxazin-3-one]: the MIC is 0.25 µg/mL (≈ 0.465 µM).

As to `NCCn1nnc2c3c(c(F)cc21)CC(CN1CCC2(CC1)CN(c1cnc4c(n1)NC(=O)CO4)C(=O)O2)C3` (stereo not shown) [Example 85, 6-[8-[[3-(2-aminoethyl)-5-fluoro-7,8-dihydro-6H-cyclopenta[e]benzotriazol-7-yl]methyl]-2-keto-1-oxa-3,8-diazaspiro[4.5]decan-3-yl]-4H-pyrazino[2,3-b][1,4]oxazin-3-one], the MIC was determined as 0.25 µg/mL (≈ 0.465 µM).

For the compound `C[C@@H](N)c1nc2cc3c(c(F)c2o1)CC(CN1CCC2(CC1)CN(c1cnc4c(n1)NC(=O)CO4)C(=O)O2)C3` (stereo partly drawn) [Example 90, 6-[8-[[2-[(1R)-1-aminoethyl]-8-fluoro-6,7-dihydro-5H-cyclopenta[f][1,3]benzoxazol-6-yl]methyl]-2-oxo-1-oxa-,38-diazaspiro[4.5]decan-3-yl]-4H-pyrazino[2,3-b][1,4]oxazin-3-one], the minimal inhibitory concentration (MIC) turned out to be 0.125 µg/mL (≈ 0.233 µM).

On to `CNCc1nc2cc(F)c3c(c2[nH]1)CC(CN1CCC2(CC1)CN(c1cnc4c(n1)NC(=O)CO4)C(=O)O2)C3` (stereo not shown) [Example 92, 6-[8-[[5-fluoro-2-(methylaminomethyl)-1,6,7,8-tetrahydrocyclopenta[e]benzimidazol-7-yl]methyl]-2-oxo-1-oxa-3,8-diazaspiro[4.5]decan-3-yl]-4H-pyrazino[2,3-b][1,4]oxazin-3-one], for which the MIC came out at 0.125 µg/mL (≈ 0.233 µM).

For the origin of these results see patent US20240252506A1 (Hoffmann-La Roche Inc., priority 2021, published 2024).
